Source: patent US20210315971A1, “COMPOSITIONS ACTING AS PRO(RENIN) RECEPTOR ANTAGONISTS FOR THE TREATMENT OF NON-ALCOHOLIC FATTY LIVER DISEASE” (Board of Regents of the Nevada System of Higher Education …, priority 2018, published 2021)

How the values were obtained:
Type in all cases: in vivo
[1] = test system: peroxisome proliferator-activated receptor gamma (PPARγ); test: Liver PPARγ in high fat diet mice; settings: subcutaneous administration, high fat diet mice (FIG. 7)
Excerpt: FIG. 7 illustrates subcutaneous administration of PRR antagonist, PRO20, attenuates peroxisome proliferator-activated receptor gamma (PPARγ). […] PRO20 treatment prevents the upregulating of PPARγ in the liver supporting a mechanism for the beneficial role of PRO20 in preventing fatty liver development.
Non-alcoholic fatty liver steatohepatitis (NASH) represents a diverse array of liver damage linked to obesity, metabolic syndrome, and diabetes. The mechanisms and the treatment for NASH remains lacking. The inventors hypothesized that PRR antagonism using PRO20 prevents NASH development. FIG. 6 illustrates subcutaneous administration of PRR antagonist, PRO20, attenuates high fat diet induced-liver steatosis in mice. Wild-type C57Bl/6J mice were treated with either with either HFD (60% calories from fat) or normal fat chow (NFD, 10% calories from fat) with matching calories for 6 weeks. Two week following diet modification, HFD mice were implanted with subcutaneous osmotic pump containing either PRO20 (27 ug/kg/d) or saline for 4 weeks. Liver tissues were processed for Oil Red 0 staining for lipid accumulation and quantified using Image)/FIJI software. Data were presented % of ORO staining to the total area. N=4 mice/group. *p<0.01 vs. NFD; #P<0.05 vs. HFD Saline; One-way ANOVA. […]

[2] = test system: Wild-type C57Bl/6J mice; test: High fat diet induced liver steatosis in mice, Oil Red O staining of liver; settings: HFD 6 weeks; PRO20 27 ug/kg/d by subcutaneous osmotic pump for 4 weeks; HFD saline 17.57±3.23%, NFD 3.51±0.86%; N=4 mice/group
Protocol: Non-alcoholic fatty liver steatohepatitis (NASH) represents a diverse array of liver damage linked to obesity, metabolic syndrome, and diabetes. The mechanisms and the treatment for NASH remains lacking. The inventors hypothesized that PRR antagonism using PRO20 prevents NASH development. FIG. 6 illustrates subcutaneous administration of PRR antagonist, PRO20, attenuates high fat diet induced-liver steatosis in mice. Wild-type C57Bl/6J mice were treated with either with either HFD (60% calories from fat) or normal fat chow (NFD, 10% calories from fat) with matching calories for 6 weeks. Two week following diet modification, HFD mice were implanted with subcutaneous osmotic pump containing either PRO20 (27 ug/kg/d) or saline for 4 weeks. Liver tissues were processed for Oil Red 0 staining for lipid accumulation and quantified using Image)/FIJI software. Data were presented % of ORO staining to the total area. N=4 mice/group. *p<0.01 vs. NFD; #P<0.05 vs. HFD Saline; One-way ANOVA. 6 weeks of HFD (17.57±3.23%) induced a significant elevation on liver ORO staining compared with the liver from mice fed with NFD (3.51±0.86%, p=0.005). […] FIG. 7 illustrates subcutaneous administration of PRR antagonist, PRO20, attenuates peroxisome proliferator-activated receptor gamma (PPARγ).

[3] = test system: liver renin-angiotensin system; test: Liver renin-angiotensin system activation induced by high fat diet; settings: subcutaneous administration, high fat diet mice (FIG. 8)

“LPTDTTTFKRIFLKRMPSI (Synthetic (pro)renin receptor agonist peptide) [PRO20]” was tested, and the “Effect on liver PPARγ” value [1] was “attenuates”, the “% of ORO staining to the total area (liver lipid accumulation)” value [2] was 7.34±1.96% and the “Effect on liver renin-angiotensin system activation induced by high fat diet” value [3] was “prevents activation”.
